Reference: patent US10654792B2, “Carboxylic acid ester prodrug inhibitors of MEK” (DUQUESNE UNIVERSITY OF THE HOLY GHOST, priority 2012, dated 2020)

How the values were obtained:
MEK5 = biological target: T1, MEK5 (Homo sapiens, UniProt Q13163); experiment: Western blot, cellular pERK5 decrease after EGF stimulation; format: cell-based; conditions: MDA-MB-231 cells, compound 10 μM pretreatment 30 min, then EGF 50 ng/mL 15 min
T1 construct: The MDA-MB-231 triple negative breast cancer cell line was pretreated with compounds; endogenous in cells; host or cells: MDA-MB-231
T1 sequence (Q13163 1-448): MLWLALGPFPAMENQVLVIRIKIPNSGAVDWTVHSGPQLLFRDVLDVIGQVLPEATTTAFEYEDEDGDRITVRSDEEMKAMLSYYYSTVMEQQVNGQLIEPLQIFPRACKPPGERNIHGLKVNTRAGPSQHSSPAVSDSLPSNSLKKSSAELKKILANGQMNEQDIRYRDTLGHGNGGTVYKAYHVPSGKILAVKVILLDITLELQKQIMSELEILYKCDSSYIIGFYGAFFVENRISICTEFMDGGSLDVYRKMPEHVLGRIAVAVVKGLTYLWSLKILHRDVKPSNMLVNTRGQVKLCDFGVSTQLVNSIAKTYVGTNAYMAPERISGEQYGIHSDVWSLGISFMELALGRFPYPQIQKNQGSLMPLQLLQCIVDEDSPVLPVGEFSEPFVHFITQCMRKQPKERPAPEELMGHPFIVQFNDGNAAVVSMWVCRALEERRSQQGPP
Procedure: (§1) Western Blot Analysis of Potential MEK-5 Inhibitors
(§2) The MDA-MB-231 triple negative breast cancer cell line was pretreated with compounds (10 μM) for 30 min followed by stimulation with epidermal growth factor (EGF, 50 ng/mL) for 15 min. Vehicle-treated cells were pretreated with DMSO for 30 min prior to EGF stimulation for 15 min. Protein visualization and quantification analysis was performed using LI-COR Odyssey Imager. *P<0.05 vs. Vehicle, one-way ANOVA followed by Tukey-Kramer test (n=3)

MEK1/2 = experiment: Western blot, cellular pERK1/2 decrease after EGF stimulation; format: cell-based; conditions: MDA-MB-231 cells, compound 10 μM pretreatment 30 min, then EGF 50 ng/mL 15 min
Procedure: as §1, §2

SMILES	cellular pERK5 decrease (%) (MEK5)	cellular pERK1/2 decrease (%) (MEK1/2)
COC(=O)c1ccc(F)c(F)c1Nc1ccc(I)cc1F [SC-1-72 Ester]	20.1	98.5
O=C(O)c1ccc(F)c(F)c1Nc1ccc(I)cc1F [SC-1-148, 3,4-Difluoro-2-((2-fluoro-4-iodophenyl)amino)benzoic Acid]	20.1	98.5
O=C(O)c1ccc(F)c(F)c1Nc1ccccc1 [SC-1-175]	2.1	64.4
N#CC(=C(/N)Sc1ccccc1N)/C(C#N)=C(\N)Sc1ccccc1N [U0126, reference compound]	0.28	99.72
CN[C@@H]1C[C@H]2O[C@@](C)([C@@H]1OC)n1c3ccccc3c3c4c(c5c6ccccc6n2c5c31)C(=O)NC4 [staurosporine, reference compound]		98.93
